This note sets out measurements from US10779537B2, “1H-pyrrolopyridine compound, N-oxide thereof or salt thereof, agricultural and horticultural insecticide comprising the compound, and method for using the insecticide” (Nihon Nohyaku Co., Ltd., priority 2016, dated 2020).

The subject of one assay is Laodelphax striatellus. As to the kind of experiment: Insecticidal test on Laodelphax striatellus (rice seedling dip). It counts as in vivo. Particulars: 192 h, rice seedlings dipped 30 seconds, ten 3rd-instar larvae, 8 days after inoculation, read-out: insecticidal efficacy (corrected mortality rate). The source says: Insecticidal Test on Laodelphax striatellus
The condensed heterocyclic compounds represented by the general formula (1) of the present invention or salts thereof were separately dispersed in water and diluted to 500 ppm. Rice plant seedlings (variety: Nihonbare) were dipped in the agrochemical dispersions for 30 seconds. After air-dried, each seedling was put into a separate glass test tube and inoculated with ten 3rd-instar larvae of Laodelphax striatellus, and then the glass test tubes were capped with cotton plugs. At 8 days after the inoculation, the numbers of surviving larvae and dead larvae were counted, the corrected mortality rate was calculated according to the formula shown below, and the insecticidal efficacy was evaluated according to the criteria shown below. Corrected mortality rate (%)=100×(Survival rate in a non-treatment plot−Survival rate in a treatment plot)/Survival rate in a non-treatment plot [Math. 2] Corrected Mortality Rate A: the corrected mortality rate is 100%. B: the corrected mortality rate is 90 to 99%. C: the corrected mortality rate is 80 to 89%. D: the corrected mortality rate is 50 to 79%.

The subject of the next assay is Plutella xylostella. As to the kind of experiment: Insecticidal test on Plutella xylostella (dip of Chinese cabbage seedlings with laid eggs). The settings on record: 144 h, seedlings with laid eggs dipped about 30 seconds, 25° C., 6 days after dip treatment, criteria of Test Example 2, read-out: insecticidal efficacy (corrected mortality rate, hatched larvae). It counts as in vivo. The source says: Insecticidal Test on Plutella xylostella
Adults of Plutella xylostella were released onto Chinese cabbage seedlings and allowed to lay eggs thereon. At 2 days after the release of the adults, the Chinese cabbage seedlings with laid eggs were dipped for about 30 seconds in agrochemical dispersions diluted to 500 ppm, each of which contained a different condensed heterocyclic compound represented by the general formula (1) of the present invention as an active ingredient. After air-dried, the seedlings were kept in a thermostatic chamber at 25° C. At 6 days after the dip treatment, the number of hatched larvae per plot was counted, the mortality rate was calculated according to the formula shown below, and the insecticidal efficacy was evaluated according to the criteria of Test Example 2. This test was conducted in triplicate using 10 adults of Plutella xylostella per plot. Corrected mortality rate (%)=100×(Number of hatched larvae in a non-treatment plot−Number of hatched larvae in a treatment plot)/Number of hatched larvae in a non-treatment plot [Math. 3]

As for `CCS(=O)(=O)c1cc(C(F)(F)F)cnc1-c1[nH]c2cc(C(F)(F)F)cnc2c1Br` [Compound 1-77, 2-(3-ethylsulfonyl-5-trifluoromethylpyridin-2-yl)-3-bromo-6-trifluoromethyl-1H-pyrrolo[3,2-b]pyridine], the mortality at 500 ppm in the assay on Laodelphax striatellus and in the assay on Plutella xylostella was 100% each time.

As for `CCS(=O)(=O)c1cc(C(F)(F)F)cnc1-c1c(Cl)c2ncc(C(F)(F)F)cc2n1C(C)=O` [Compound 3-3, 1-acetyl-2-(3-ethylsulfonyl-5-trifluoromethylpyridin-2-yl)-3-chloro-6-trifluoromethyl-1H-pyrrolo[3,2-b]pyridine], the mortality at 500 ppm in the assay on Laodelphax striatellus and with Plutella xylostella was 100% in each case.

As to `CCS(=O)(=O)c1cc(C(F)(F)F)cnc1-c1[nH]c2cc(C(F)(F)F)cnc2c1Cl` [Compound 1-76, 2-(3-ethylsulfonyl-5-trifluoromethylpyridin-2-yl)-3-chloro-6-trifluoromethyl-1H-pyrrolo[3,2-b]pyridine], the mortality at 500 ppm in the assay on Laodelphax striatellus and in the assay with Plutella xylostella was 100% in each case.

For the compound `CCS(=O)(=O)c1cc(C(F)(F)F)cnc1-c1[nH]c2cc(C(F)(F)F)cnc2c1F` [Compound 1-75, 2-(3-ethylsulfonyl-5-trifluoromethylpyridin-2-yl)-3-fluoro-6-trifluoromethyl-1H-pyrrolo[3,2-b]pyridine], the mortality at 500 ppm in the assay on Laodelphax striatellus and in the assay with Plutella xylostella was 100% in each case.
